Results reported in US12162836B2, “N-acyl-{4-[(4-aryl-phenyl)sulfonylmethyl]piperidine} compounds and their therapeutic use” (Modern Biosciences Limited, priority 2019, dated 2024).
Values after ≈ are worked out from the molar mass of the structure shown.

Tests used:
[1] = test system: Thp1 human monocytic cells; assay: Thp1 Monocyte ATP Production Assay (ATPlite); assay type: cell-based; details: Thp1 cells, 24 hour incubation, mean of 2 independent experiments
Experimental: In vitro potency of test compounds was determined by incubation with Thp1 human monocytic cells and subsequent determination of Adenosine TriPhosphate (ATP) levels using firefly luciferase.
ATP is present in all metabolically active cells. When cells lose integrity, their ability to synthesise ATP is rapidly lost. […] See, e.g., Kang et al., 2015; Jiang et al., 2013. Levels of ATP can be monitored using a system based on firefly (Photinus pyralis) luciferase (see, e.g., Auld et al., 2009) using commercially available kits. A system known as ATPlite™ was using to measure effects of the test compounds on cellular viability in vitro. This one-step assay system is an adenosine triphosphate (ATP) monitoring system based on the production of light caused by the reaction of ATP from the cells with added luciferase and D-luciferin, as illustrated in the reaction scheme below:
Thp1 cells were plated at 112500 cells per well in 125 μL RPMI-1640 (no glucose) with 1% FBS in 96-well plates. Test compounds were prepared as 100 mM solutions in DMSO. These stock solutions were diluted in DMSO and then diluted 1000× in culture medium (RPMI) before being added directly to the wells so as to give the desired final compound concentration. After a 24 hour incubation at 37° C./5% CO2, ATPLite™ (Perkin Elmer) was added to each well (1:10 v/v, 10 μL). The plate was then incubated at room temperature for 5 minutes and the emitted light was quantified on Viewlux with a measurement time of 0.3 seconds and binning 4×4.
The average results for each test compound were expressed as a percent (%) of the average control value reflecting cell viability. The average values across the concentrations tested were then plotted and the IC50 for was calculated by fitting the data to a 4-parameter IC50 equation using software from Graf it (Erithacus Software). Each experiment was repeated twice and the data are presented as the mean IC50 from both experiments.

[2] = Human Hepatocyte Stability; assay type: in vitro ADME; details: pooled human hepatocytes, 1 μM, 60 minute incubation; for half-life at 1 μM: read-out: Human t1/2
Experimental: (§1) Metabolic stability of test compounds was measured by determination of the rate of disappearance of the compound when incubated in the presence of human hepatocytes, a primary source of the most important enzymes (cytochrome P450s) involved in drug metabolism. Study of drug stability in the presence of primary hepatocytes is accepted as a valuable model permitting rapid prediction of in vivo drug stability.
(§2) Human hepatocytes were obtained from a commercial source and viability was assessed using a trypan blue solution prior to use. Test compounds (final concentration 1 μM, 0.1 DMSO, 0.9% acetonitrile) or a marker (diclofenac or diltiazem, final assay concentration 1 μM, 0.1% DMSO, 0.9% acetonitrile) were incubated with pooled hepatocytes for a 60 minute period and samples removed at up to 6 time points and analysed by LC-MS/MS for the presence/amount of test compounds.
(§3) Each compound was incubated for 0, 5, 15, 30, 45, or 60 minutes. The reactions were stopped by the addition of methanol containing an internal standard (1 μM Tolbutamide) at the appropriate time points, mixed and placed at −20° C. for 1 hour to quench and allow protein to precipitate. All samples were centrifuged (2500× g, 20 minutes, 4° C.). The aliquots were analysed using LC-MS/MS. Reactions were performed in duplicate at 37° C.
(§4) Data were processed, and the results plotted as In(concentration) vs. time. The elimination rate constant (slope of the regression line, k) was calculated using the following formula, where C(t) is the concentration at time t and C(0) is the starting concentration:
(§5) The half-life (t1/2) was calculated using the following formula: […]
(§6) The intrinsic clearance (Clint) was calculated using the following formula, where [cell] is the hepatocyte concentration in the assay: […]

[3] = Aqueous solubility in FaSSIF; assay type: physicochemical; details: for solubility at 16 h: kinetic from dmso stock, pH 6.5, 16 hours, room temperature
Experimental: Aqueous solubility was measured by equilibration of compounds with fasted state simulated intestinal fluid (FaSSIF) and quantified spectrophotometrically.
Preparation of blank FaSSIF: 0.21 g of sodium hydroxide (NaOH) pellets, 1.97 g of dihydrogen sodium phosphate (NaH2PO4.2H2O) and 3.09 g of sodium chloride (NaCl) were dissolved in 400 mL of deionised water. The pH was adjusted to 6.5 using 1 M hydrochloric acid and further deionised water added to a final volume of 500 mL.
Preparation of FaSSIF: 0.056 g of SIF Powder (containing sodium taurocholate and lecithin) (Pharses A G) was dissolved in 25 mL of blank FaSSIF and stirred until the powder was completely dissolved. The solution was allowed to stand for 2 hours during which it became opalescent; it was used within 24 hours. The final solution composition was characterised as follows: • Sodium taurocholate: 3 mM • Lecithin: 0.75 mM • Osmolarity: 270±10 mOsmol • pH: 6.5
The optical density was measured at the end of the incubation period for test compounds and a reference used to determine solubility. In brief, two samples were prepared for each determination: a reference sample consisting of a stock solution of test compound in DMSO diluted in system solution (a phosphate free, low absorption buffer) and propanol; and a test sample (prepared in triplicate) consisting of 0.5 mL FaSSIF spiked with test compound at 0.2 mM. Each sample was incubated at room temperature for 16 hours with constant shaking at 250 rpm. At the end of the incubation period, 0.3 mL of each sample was filtered through a pION filter plate (PION, Woburn MA), diluted 1:1 with propanol and scanned using UV spectrophotometry at Amax ([…]) using a Spectra Max Plus—Version 2.1000 (Molecular Devices, Sunnyvale, CA), with pSOL Explorer solubility determination software (pION, Woburn, MA).
FaSSIF solubility was calculated using the following formula:
[formula] • wherein: • “OD” is the optical density; • “Cr” is the concentration of the reference (33.4 μM); and • “molecular weight” is for the test compound (e.g., 381.44 for ABD735).

hERG = hERG (Homo sapiens (Human), UniProt Q12809); assay: hERG Ion Channel binding assay (3H astemizole displacement); details: human, membranes of HEK293 cells stably expressing hERG, pH 7.4, probe 3H astemizole (1.5 nM); 30 μM; displacement of 3H astemizole, hERG-HEK293 membranes
Experimental: The activity of the compounds against the hERG ion channel was tested using a binding assay in stably transfected Human Embryonic Kidney cells (hERG-HEK293). hERG-HEK293 cells were cultured in MEM medium (Invitrogen)+10% FBS, glutamine and non-essential amino acids at 37° C. To prepare membranes, cells were homogenised on ice, centrifuged at 650×g for 10 minutes at +4° C., and the resulting supernatant centrifuged at 48000×g for 10 minutes at +4° C. The pellet was resuspended in ice-cold 50 mM Tris-HCl buffer, 5 mM KCl (pH 8.5) and stored frozen in aliquots until use.
For binding assays, membranes were thawed, re-suspended in assay buffer (10 mM HEPES pH 7.4, 0.1% BSA, 5 mM potassium chloride, 0.8 mM magnesium chloride, 130 mM sodium chloride, 1 mM sodium-EGTA, 10 mM glucose) and incubated with ^3H astemizole (1.5 nM), and with or without test compound at 25° C. for 60 minutes. Binding was determined following filtration of the membranes and washing in Tris-HCl buffer by scintillation counting of ^3H astemizole.
The degree of binding of compounds to the hERG ion channel (%) was obtained by measuring the binding of ^3H astemizole and its displacement by test compound. A value of 0% indicates no binding and a value of 100% indicates complete displacement of the radiolabelled ligand.

human hepatocytes = assay: Human Hepatocyte Stability; assay type: in vitro ADME; details: for metabolic stability (in words): human hepatocytes
Experimental: as §1, §2, §3, §4, §5, §6

[4] = Homo sapiens, THP-1, 9-point concentration range from 10 μM to 10 nM
[5] = pooled human hepatocytes, 1 μM, 60 minute incubation

Chain of hERG (Q12809 whole entry): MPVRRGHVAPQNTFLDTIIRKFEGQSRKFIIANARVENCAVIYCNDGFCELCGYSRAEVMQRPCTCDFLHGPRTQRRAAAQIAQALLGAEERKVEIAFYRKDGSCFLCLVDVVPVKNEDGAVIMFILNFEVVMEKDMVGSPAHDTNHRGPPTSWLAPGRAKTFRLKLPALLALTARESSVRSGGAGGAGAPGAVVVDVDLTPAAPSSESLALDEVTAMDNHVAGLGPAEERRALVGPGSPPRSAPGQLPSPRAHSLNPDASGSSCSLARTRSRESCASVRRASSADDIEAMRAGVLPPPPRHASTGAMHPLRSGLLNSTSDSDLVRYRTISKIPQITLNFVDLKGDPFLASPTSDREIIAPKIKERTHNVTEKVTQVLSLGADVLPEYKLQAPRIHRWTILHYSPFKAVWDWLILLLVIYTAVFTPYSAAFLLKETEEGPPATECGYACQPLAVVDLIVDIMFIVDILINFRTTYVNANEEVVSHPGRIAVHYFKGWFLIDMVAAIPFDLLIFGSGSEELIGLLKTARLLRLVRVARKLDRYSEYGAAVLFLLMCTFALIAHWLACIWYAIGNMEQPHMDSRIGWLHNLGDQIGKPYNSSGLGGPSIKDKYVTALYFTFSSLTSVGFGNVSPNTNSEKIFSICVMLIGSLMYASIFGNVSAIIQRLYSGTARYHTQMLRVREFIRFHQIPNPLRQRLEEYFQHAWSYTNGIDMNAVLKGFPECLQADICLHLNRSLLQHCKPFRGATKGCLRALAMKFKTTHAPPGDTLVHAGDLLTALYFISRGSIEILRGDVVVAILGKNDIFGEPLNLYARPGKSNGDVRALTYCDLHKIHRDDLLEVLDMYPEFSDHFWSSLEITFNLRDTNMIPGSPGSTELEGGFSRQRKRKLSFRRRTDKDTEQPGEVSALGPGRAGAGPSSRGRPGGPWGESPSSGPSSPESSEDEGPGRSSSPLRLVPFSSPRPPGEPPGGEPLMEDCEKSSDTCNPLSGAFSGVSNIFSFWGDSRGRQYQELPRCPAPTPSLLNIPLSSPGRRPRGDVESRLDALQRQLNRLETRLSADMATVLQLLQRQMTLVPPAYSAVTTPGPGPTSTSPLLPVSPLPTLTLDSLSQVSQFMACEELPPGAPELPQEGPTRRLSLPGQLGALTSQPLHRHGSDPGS

IC50 [1, 4] [µM] | hepatocyte CLint at 1 μM [2] [µL/min/1e6 cells] | half-life at 1 μM [2] [h] | solubility at 16 h [3] [µg/mL] | metabolic stability (in words) (human hepatocytes) | SMILES | inhibition at 60 min, 30 µM (hERG) [%] | also measured
3.5 | – | – | – | – | CC(=O)N1CCC(CS(=O)(=O)c2ccc(-c3ccc(C#N)cc3)c(F)c2)CC1 [NASMP-10, 4′-(((1-Acetylpiperidin-4-yl)methyl)sulfonyl)-2′-fluoro-[1,1′-biphenyl]-4-carbonitrile] | – | –
2.8 | 11.7 | 1.92 | 27 (≈ 62.9 µM) | – | CC(=O)N1CCC(C(F)(F)S(=O)(=O)c2ccc(-c3ccc(F)cc3F)cc2)CC1 [NASMP-19, 1-(4-(((2′,4′-Difluoro-[1,1′-biphenyl]-4-yl)sulfonyl)difluoromethyl)piperidin-1-yl)ethan-1-one] | 21 | –
1.7 | – | – | – | – | CC(=O)N1CCC(CS(=O)(=O)c2ccc(-c3ccc(F)cc3F)c(C#N)c2)CC1 [NASMP-13, 4-(((1-Acetylpiperidin-4-yl)methyl)sulfonyl)-2′,4′-difluoro-[1,1′-biphenyl]-2-carbonitrile] | – | –
1.6 | 3.3 | > 1 | – | – | CC(=O)N1CCC(CS(=O)(=O)c2ccc(-c3ncc(F)cc3F)c(F)c2)CC1 [NASMP-11, 1-(4-(((4-(3,5-Difluoropyridin-2-yl)-3-fluorophenyl)sulfonyl)methyl)piperidin-1-yl)ethan-1-one] | – | –
1.4 | 28.2 | 0.97 | – | – | CN(C)C(=O)N1CCC(CS(=O)(=O)c2ccc(-c3ccc(F)cc3F)cc2)CC1 [NASMP-14, 4-(((2′,4′-Difluoro-[1,1′-biphenyl]-4-yl)sulfonyl)methyl)-N,N-dimethylpiperidine-1-carboxamide] | – | –
7.9 | < 3 | > 7.67 | 32 (≈ 81.3 µM) | exceptionally good stability | CC(=O)N1CCC(CS(=O)(=O)c2ccc(-c3ccc(F)c(F)c3)cc2)CC1 [NASMP-02, 1-(4-(((3′,4′-Difluoro-[1,1′-biphenyl]-4-yl)sulfonyl)methyl)piperidin-1-yl)ethan-1-one] | 30 | –
3 | < 3 | > 7.67 | 42 (≈ 107 µM) | exceptionally good stability | CC(=O)N1CCC(CS(=O)(=O)c2ccc(-c3cc(F)ccc3F)cc2)CC1 [NASMP-03, 1-(4-(((2′,5′-Difluoro-[1,1′-biphenyl]-4-yl)sulfonyl)methyl)piperidin-1-yl)ethan-1-one] | 20 | –
1.5 | – | > 1 | – | exceptionally good stability | CC(=O)N1CCC(C)(CS(=O)(=O)c2ccc(-c3ccc(Cl)cc3C#N)cc2)CC1 [NASMP-16, 4′-(((1-Acetyl-4-methylpiperidin-4-yl)methyl)sulfonyl)-4-chloro-[1,1′-biphenyl]-2-carbonitrile] | – | –
1.7 | – | – | – | – | CC(=O)N1CCC(CS(=O)(=O)c2ccc(-c3ccc(C#N)cc3F)cc2)CC1 [NASMP-04, 4′-(((1-Acetylpiperidin-4-yl)methyl)sulfonyl)-2-fluoro-[1,1′-biphenyl]-4-carbonitrile] | – | –
– | – | – | – | – | CC1(O)CCC(NS(=O)(=O)c2ccc(-c3ccc(F)cc3F)cc2)CC1 (stereo not shown) [ABD900, reference compound] | – | IC50 ([1]; 9-point concentration range from 10 μM to 10 nM): 1.1 µM; Human Clint (human hepatocytes; [5]): 6.3 uL/min/million cells; Human t1/2 (human hepatocytes; [5]): 3.67 h; Solubility ([3]; pH 6.8): 120 µg/mL (≈ 315 µM)
3.8 | – | – | – | – | CC(=O)N1CCC(CS(=O)(=O)c2ccc(-c3cccc(F)c3F)cc2)CC1 [NASMP-08, 1-(4-(((2′,3′-Difluoro-[1,1′-biphenyl]-4-yl)sulfonyl)methyl)piperidin-1-yl)ethan-1-one] | – | –
– | < 3 | > 7.67 | 37 (≈ 94 µM) | exceptionally good stability | CC(=O)N1CCC(CS(=O)(=O)c2ccc(-c3cc(F)cc(F)c3)cc2)CC1 [NASMP-20, 1-(4-(((3′,5′-Difluoro-[1,1′-biphenyl]-4-yl)sulfonyl)methyl)piperidin-1-yl)ethan-1-one] | 39 | IC50 ([1]; Homo sapiens, THP-1, 8-point concentration range from 100 μM to 100 nM): 18.1 µM
